Test results as given in publication PMC5851651, “Population-specific design of de-immunized protein biotherapeutics” (PLoS Computational Biology, 2018).

Legend:
DRB1*03:01 = target: T1, DRB1*03:01 (Homo sapiens, UniProt P01903+P01911, A100K/A102G/A103R/A169T/F55Y/I96L/K41T/L162R/M171V/P40S/Q125H/Q178H/Q39Y/R42S/S66N/T106N/T262R/W38E/Y61H); experiment: REVEAL HLA-Peptide binding assay (ProImmune); details: score relative to high-affinity control peptide, percentage of the control signal
T1 construct: purchased ProImmune
Method: (§1) To test the designs, we synthesized twenty overlapping 15-mer peptides containing the introduced mutations and their wild-type counterparts. The peptides maximally covered the predicted epitopes around the mutations of all designed constructs that contained one and two mutations (Supplementary S2 Table). The affinity of these peptides to the three HLA alleles was measured at time zero and after 24 hours (Methods, Supplementary S3 and S4 Tables). We linearly combined the measured relative affinity scores across HLA alleles weighted by their allele frequencies for each peptide respectively to produce a score that approximates the overall immunogenicity (Fig 5A). Results are presented for measurements taken at time point zero. […] Overall, the measured and predicted immunogenicity of the tested peptides correlated well with r = 0.76 (CI95 = [0.48, 0.91], t = 4.885, df = 17, p-value = 1.4e-4; Fig 5A). Next, we compared the predicted and measured gain or loss in immunogenicity for the whole region by reconstructing the targeted region using overlapping peptides. The measured relative scores were linearly combined (as previously) and then normalized to the number of overlapping peptides used in the reconstruction (Fig 5B). The difference in the measured scores between the wild type and mutant regions can be thought of as a proxy for gain or loss in immunogenicity and correlated well to the predicted changes (r = 0.86, CI95 = [0.40, 0.97], t = 4.136, df = 6, p-value = 6.1e-3; Fig 5B).
(§2) In order to experimentally verify our in silico predictions for Factor VIII, we utilized the commercial REVEAL HLA-Peptide binding assay of ProImmune (www.proimmune.com). Peptides were synthesized using the PEPscreen custom library synthesis method, yielding high purity peptides for experimental analysis. HLA-peptide binding was assessed for the three HLA-DRB1 alleles used in this study (DRB1*15:01, DRB1*03:01 and DRB1*07:01). In short, the method compares the affinity of the studied peptide to the affinity of a high-affinity control peptide. Each peptide is then scored for binding to a certain HLA molecule relative to the score of the control peptide and reported as the percentage of the signal generated by the control peptide.

DRB1*07:01 = DRB1*07:01 (Homo sapiens, UniProt P01903+P01911, A100R/A102G/A103Q/D57E/D86V/E43K/F76Y/K127E/L162R/M171V/P40G/Q125H/Q99D/R33Q/R42Y/R54Q/S133A/S66F/T210M/V115G/Y107V/Y59L/Y89S); experiment: REVEAL HLA-Peptide binding assay (ProImmune); details: score relative to high-affinity control peptide, percentage of the control signal
Method: as §1, §2

DRB1*15:01 = target: T2, DRB1*15:01 (Homo sapiens, UniProt P01903+P01911); experiment: REVEAL HLA-Peptide binding assay (ProImmune); details: score relative to high-affinity control peptide, percentage of the control signal
T2 construct: purchased ProImmune
Method: as §1, §2

[1] = system: DRB1*15:01, DRB1*03:01 and DRB1*07:01; experiment: Experimental immunogenicity score: relative HLA binding combined across alleles, weighted by allele frequency; set-up: species or system human; key: allele-frequency-weighted sum of binding, % of control peptide signal; details: for Difference to WT (Experimental Score): per peptide against wild-type counterpart; for Experimental Score: per peptide, weights DRB1*15:01 0.162, DRB1*07:01 0.146, DRB1*03:01 0.143
Method: as §1
Fig 5 (A) Correlation of experimental and predicted immunogenicity of each peptide. The experimental immunogenicity score of a peptide is defined as the linear combination of the individual experimentally determined relative HLA binding affinity of each HLA allele h ∈ H weighted by the HLA allele frequency. (B) Correlation of experimental and predicted immunogenicity of the whole redesigned region. The summarized immunogenicity score of the whole region is the linear combination of the overlapping peptides used to reconstruct the region, normalized by total number of peptides used. The predicted immunogenicity scores per peptide were computed according to our immunogenicity objective function. The red lines are a fitted linear regression and the red tubes represent their 95-confidence interval.
as §2

[2] = time 0 (H0), listed as FTRYLRIHPQSWEHQ
[3] = time 0 (H0), listed as FTRYLRIHPQSWVHH
[4] = time 0 (H0), listed as LRIHPQSWEHQIALRM
[5] = time 0 (H0), listed as LRIHPQSWVHHIALRM
[6] = time 0 (H0), listed as LRIHPQSWVHQIALRM
[7] = time 0 (H0), listed as LTRHLRIHPQSWEHQ
[8] = time 0 (H0), listed as LTRLLRIHPQSWEHQ
[9] = time 0 (H0), listed as LTRYLRIHPQSWVHQ
[10] = time 0 (H0), listed as TTRYLRIHPQSWEHQ

DRB1*03:01 (DRB1*03:01; after 24 hours (H24))	DRB1*03:01 (DRB1*03:01; time 0 (H0))	DRB1*07:01 (DRB1*07:01; after 24 hours (H24))	DRB1*07:01 (DRB1*07:01; time 0 (H0))	DRB1*15:01 (DRB1*15:01; after 24 hours (H24))	DRB1*15:01 (DRB1*15:01; time 0 (H0))	Sequence	Difference to WT (Experimental Score) ([1]; after 24 hours (H24))	Experimental Score ([1]; after 24 hours (H24))	Difference to WT (Experimental Score) ([1]; time 0 (H0))	Experimental Score ([1]; time 0 (H0))	further results
0.000%	0.020%	27.400%	43.779%	0.300%	2.906%	FTRYLRIHPQSWEHQ [Design M-10, peptide covering L2321F, V2333E]	-9.338	4.049	-10.856	6.865	DRB1*03:01 (DRB1*03:01; [2]): 0%; DRB1*07:01 (DRB1*07:01; [2]): 43.8%; DRB1*15:01 (DRB1*15:01; [2]): 2.9%
0.000%	1.449%	29.800%	39.809%	7.500%	16.564%	FTRYLRIHPQSWVHH [Design M-13, peptide covering L2321F, Q2335H]	-7.821	5.566	-9.019	8.703	DRB1*03:01 (DRB1*03:01; [3]): 1.4%; DRB1*07:01 (DRB1*07:01; [3]): 39.8%; DRB1*15:01 (DRB1*15:01; [3]): 16.6%
0.000%	0.157%	19.800%	32.020%	11.600%	44.319%	LRIHPQSWEHQIALRM [Design M-6, peptide covering V2333E]	-3.607	4.770	-4.693	11.877	DRB1*03:01 (DRB1*03:01; [4]): 0.2%; DRB1*07:01 (DRB1*07:01; [4]): 32%; DRB1*15:01 (DRB1*15:01; [4]): 44.3%
0.000%	0.555%	40.700%	65.265%	20.400%	47.784%	LRIHPQSWVHHIALRM [Design M-5, peptide covering Q2335H]	0.870	9.247	0.779	17.349	DRB1*03:01 (DRB1*03:01; [5]): 0.6%; DRB1*07:01 (DRB1*07:01; [5]): 65.3%; DRB1*15:01 (DRB1*15:01; [5]): 47.8%
0.021%	0.200%	38.252%	56.788%	17.219%	50.927%	LRIHPQSWVHQIALRM [WT-4, wild-type peptide of Factor VIII C2 domain, reference compound]		8.377		16.570	DRB1*03:01 (DRB1*03:01; [6]): 0.2%; DRB1*07:01 (DRB1*07:01; [6]): 56.8%; DRB1*15:01 (DRB1*15:01; [6]): 50.9%
0.000%	0.032%	21.500%	42.841%	5.300%	18.099%	LRLHPQSWEHQIALRM [Design M-15, peptide covering I2327L, V2333E]	-4.380	3.998	-7.378	9.191	
0.000%	0.000%	0.100%	2.480%	2.000%	13.999%	LTRHLRIHPQSWEHQ [Design M-8, peptide covering Y2324H, V2333E]	-13.048	0.339	-15.092	2.630	DRB1*03:01 (DRB1*03:01; [7]): 2.5%; DRB1*07:01 (DRB1*07:01; [7]): 14.0%; DRB1*15:01 (DRB1*15:01; [7]): 0.0%
0.000%	0.026%	20.100%	33.528%	0.100%	5.445%	LTRLLRIHPQSWEHQ [Design M-7, peptide covering Y2324L, V2333E]	-10.436	2.951	-11.941	5.781	DRB1*03:01 (DRB1*03:01; [8]): 0%; DRB1*07:01 (DRB1*07:01; [8]): 33.5%; DRB1*15:01 (DRB1*15:01; [8]): 5.4%
0.000%	1.668%	17.900%	28.951%	0.300%	5.434%	LTRYLKIHPQSWEHQ [Design M-9, peptide covering R2326K, V2333E]	-10.725	2.662	-12.376	5.346	
0.243%	0.243%	74.002%	87.324%	15.728%	30.478%	LTRYLRIHPQSWVHQ [WT-3, wild-type peptide of Factor VIII C2 domain, reference compound]		13.387		17.722	DRB1*03:01 (DRB1*03:01; [9]): 0.2%; DRB1*07:01 (DRB1*07:01; [9]): 87.3%; DRB1*15:01 (DRB1*15:01; [9]): 30.5%
0.000%	0.005%	53.300%	75.329%	0.000%	9.756%	RIHPQSWVHHIALRM [Design M-4, peptide covering Q2335H]	2.595	7.782	5.857	12.579	
0.000%	0.226%	35.522%	40.243%	0.00277%	5.029%	RIHPQSWVHQIALRM [WT-2, wild-type peptide of Factor VIII C2 domain, reference compound]		5.187		6.723	
0.000%	0.544%	49.600%	71.612%	1.600%	6.575%	TTRYLRIHPQSWEHQ [Design M-11, peptide covering L2321T, V2333E]	-5.886	7.501	-6.123	11.598	DRB1*03:01 (DRB1*03:01; [10]): 0.5%; DRB1*07:01 (DRB1*07:01; [10]): 71.6%; DRB1*15:01 (DRB1*15:01; [10]): 6.6%
